The source of these data is ChEMBL document CHEMBL6182838, “Structure-activity relationship expansion and microsomal stability assessment of the 2-morpholinobenzoic acid scaffold as antiproliferative phosphatidylcholine-specific phospholipase C inhibitors” (RSC Med Chem, 2025).

For one experiment, the system named is Bacillus cereus. The experiment is described as follows: Inhibition of Bacillus cereus phosphatidylcholine specific phospholipase C (PC-PLC BC) assessed as enzyme activity by measuring formation of resorufin fluorophore 10 uM by Amplex-Red based fluorescence assay relative to control. Further details: scale not given: the % may be the effect or the level left.

A further experiment has as its system MDA-MB-231. The experiment is described as follows: Antiproliferative activity against human MDA-MB-231 cells assessed as cell proliferation at 10 uM measured after 3 days incubation followed by incubated 5 hrs with [3H]-thymidine by 3H-thymidine incorporation assay relative to control. In kind it is functional. To be noted: MDA-MB-231, 72 h, time 3 day, read-out: Activity. On the technique in general: Dividing cells build labelled thymidine or BrdU into new DNA.

A further experiment deals with HCT-116. The experiment is described as follows: Antiproliferative activity against human HCT-116 cells assessed as cell proliferation at 10 uM measured after 3 days incubation followed by incubated 5 hrs with [3H]-thymidine by 3H-thymidine incorporation assay relative to control. Format: functional. The following applies: HCT-116, 72 h, time 3 day, read-out: Activity.

Consider `COC(=O)c1cc(NCc2ccccc2F)ccc1C1CCOCC1`, for which the Activity with Bacillus cereus was 62.3%. In addition, the results for the growth at 10 µM with MDA-MB-231 and in the experiment with HCT-116 were 17.6% and 9.5%, respectively.
On the same counts, the results for `COC(=O)c1cc(NCc2ccccc2OC)ccc1C1CCOCC1` are 94.7%, 22% and 31.2%.
Taken in the same sequence, the figures for `O=C(O)c1cc(NCc2ccccc2F)ccc1C1CCOCC1` were 43.4%, 113% and 104%.
Taken in the same sequence, the figures for `O=C(NO)c1ccc(NCc2cccc(Br)c2)cc1N1CCOCC1` were 45.3%, 25.3% and 32.3%.
As for `O=C(NO)c1ccc(NCc2ccc(Cl)cc2)cc1N1CCOCC1`, in the experiment on Bacillus cereus, the Activity is 54.4%. Also, the growth at 10 µM was determined as 45.5% in the experiment with MDA-MB-231 and 57.4% with HCT-116.
On the same counts, the results for `COc1ccc(CNc2ccc(C3CCOCC3)c(C(=O)NO)c2)cc1` are 80.4%, 82% and 88.6%.
For `COC(=O)c1cc(NCc2ccccc2)ccc1C1CCOCC1`, in the experiment with Bacillus cereus, the Activity amounted to 77.2%. For the same compound, the results for the growth at 10 µM in the experiment on MDA-MB-231 and in the experiment with HCT-116 were 29.3% and 19.8%, respectively.
On the same counts, the results for `COc1ccccc1CNc1ccc(C2CCOCC2)c(C(=O)O)c1` are 108%, 100% and 106%.
With `O=C(NO)c1cc(NCc2cccc(Cl)c2)ccc1N1CCOCC1`, the Activity with Bacillus cereus was determined as 30.5%.
As to `COC(=O)c1ccc(NCc2cccc(OC)c2)cc1N1CCOCC1`, in the experiment on Bacillus cereus, the Activity was found to be 109%. Also, the growth at 10 µM with MDA-MB-231 stood at 80.6%; in the experiment with HCT-116, 48.5%.
Regarding `O=C(O)c1cc(NCc2cccc(Cl)c2)ccc1N1CCOCC1`, in the experiment on Bacillus cereus, the Activity was 10.7%.
Regarding `COC(=O)c1cc(NCc2ccccc2Br)ccc1C1CCOCC1`, the Activity in the experiment with Bacillus cereus was 112%. Further, the growth at 10 µM came to 16.4% in the experiment with MDA-MB-231 and 20.3% in the experiment on HCT-116.
On the same counts, the results for `COc1ccc(CNc2ccc(C3CCOCC3)c(C(=O)O)c2)cc1` are 104%, 102% and 93.6%.
For the compound `COC(=O)c1cc(NCc2ccc(Cl)cc2)ccc1C1CCOCC1`, the Activity in the experiment with Bacillus cereus worked out at 112%. Besides, the growth at 10 µM was found to be 83.8% with MDA-MB-231 and 56.7% in the experiment on HCT-116.
Taken in the same sequence, the figures for `COc1ccc(CNc2ccc(C(=O)NO)c(N3CCOCC3)c2)cc1` were 45.5%, 76.9% and 91.5%.
Taken in the same sequence, the figures for `COC(=O)c1ccc(NCc2ccccc2Br)cc1N1CCOCC1` were 36.3%, 51.3% and 29.5%.
Taken in the same sequence, the figures for `O=C(O)c1cc(NCc2ccc(Br)cc2)ccc1C1CCOCC1` were 105%, 102% and 104%.
With `COC(=O)c1ccc(NCc2ccc(Cl)cc2)cc1N1CCOCC1`, in the experiment with Bacillus cereus, the Activity is 41.3%. Besides, the growth at 10 µM in the experiment on MDA-MB-231 was found to be 70.3%; in the experiment with HCT-116 it was 43.8%.
Taken in the same sequence, the figures for `O=C(NO)c1ccc(NCc2ccc(Br)cc2)cc1N1CCOCC1` were 45.6%, 21.8% and 18.1%.
Taken in the same sequence, the figures for `COC(=O)c1cc(NCc2cccc(OC)c2)ccc1C1CCOCC1` were 85.5%, 83.9% and 62.5%.
On to `O=C(O)c1cc(NCc2ccccc2)ccc1C1CCOCC1`, for which the Activity in the experiment with Bacillus cereus came to 54%. The growth at 10 µM in the experiment with MDA-MB-231 was found to be 107%; in the experiment on HCT-116, 99.8%.
Consider `O=C(NO)c1cc(NCc2cccc(Cl)c2)ccc1C1CCOCC1`, for which the Activity in the experiment with Bacillus cereus is 79.7%. Besides, the figures for the growth at 10 µM in the experiment with MDA-MB-231 and in the experiment on HCT-116 were 80.1% and 83%, respectively.
On the same counts, the results for `O=C(O)c1ccc(NCc2cccc(Br)c2)cc1N1CCOCC1` are 95.8%, 104% and 101%.
`COc1cccc(CNc2ccc(C(=O)O)c(N3CCOCC3)c2)c1`: the Activity in the experiment with Bacillus cereus is 106%. Besides, the growth at 10 µM in the experiment with MDA-MB-231 amounted to 101%; in the experiment on HCT-116 it was 103%.
On the same counts, the results for `O=C(O)c1ccc(NCc2ccccc2)cc1N1CCOCC1` are 96.6%, 96.8% and 92.4%.
Taken in the same sequence, the figures for `O=C(NO)c1cc(NCc2cccc(F)c2)ccc1C1CCOCC1` were 88.2%, 84.4% and 94.4%.
Regarding `COC(=O)c1cc(NCc2ccccc2Cl)ccc1C1CCOCC1`, in the experiment with Bacillus cereus, the Activity came to 101%. Also, the growth at 10 µM in the experiment on MDA-MB-231 and in the experiment with HCT-116 was 25.9% throughout.
Consider `O=C(NO)c1cc(NCc2ccc(F)cc2)ccc1C1CCOCC1`, for which the Activity in the experiment with Bacillus cereus was found to be 93.7%. Also, the growth at 10 µM with MDA-MB-231 worked out at 86.6%; in the experiment with HCT-116, 91.6%.
On the same counts, the results for `COc1cccc(CNc2ccc(C(=O)NO)c(N3CCOCC3)c2)c1` are 51.4%, 65.7% and 77.4%.
`COC(=O)c1cc(NCc2ccc(OC)cc2)ccc1C1CCOCC1`: the Activity in the experiment with Bacillus cereus turned out to be 75.4%. In addition, the growth at 10 µM amounted to 71.2% in the experiment on MDA-MB-231 and 54.5% in the experiment with HCT-116.
On the same counts, the results for `O=C(NO)c1ccc(NCc2ccccc2Br)cc1N1CCOCC1` are 54.7%, 30% and 54.5%.
On the same counts, the results for `O=C(NO)c1cc(NCc2ccccc2)ccc1C1CCOCC1` are 80.7%, 90% and 80.2%.
Taken in the same sequence, the figures for `O=C(O)c1cc(NCc2cccc(Cl)c2)ccc1C1CCOCC1` were 109%, 114% and 103%.
As for `COc1ccccc1CNc1ccc(C(=O)O)c(N2CCOCC2)c1`, the Activity in the experiment on Bacillus cereus worked out at 105%. The growth at 10 µM in the experiment on MDA-MB-231 came to 92.6%; with HCT-116, 102%.
Taken in the same sequence, the figures for `COc1cccc(CNc2ccc(C3CCOCC3)c(C(=O)NO)c2)c1` were 80.6%, 89.2% and 94.4%.
In the case of `O=C(NO)c1ccc(NCc2ccccc2F)cc1N1CCOCC1`, the Activity in the experiment on Bacillus cereus was determined as 50.9%. In addition, the growth at 10 µM in the experiment with MDA-MB-231 amounted to 79.6%; in the experiment with HCT-116, 87.6%.
On to `O=C(O)c1ccc(NCc2cccc(Cl)c2)cc1N1CCOCC1`, for which the Activity in the experiment on Bacillus cereus was found to be 33.1%. Also, the growth at 10 µM with MDA-MB-231 was determined as 87.2%; in the experiment on HCT-116 it was 88.6%.
On the same counts, the results for `O=C(O)c1ccc(NCc2ccccc2F)cc1N1CCOCC1` are 82.2%, 96.4% and 95.2%.
On the same counts, the results for `COC(=O)c1ccc(NCc2ccc(Br)cc2)cc1N1CCOCC1` are 103%, 68.9% and 52.5%.
On to `O=C(NO)c1cc(NCc2ccccc2Br)ccc1N1CCOCC1`, for which the growth at 10 µM in the experiment on MDA-MB-231 stood at 7.4%.
As for `COc1cccc(CNc2ccc(C3CCOCC3)c(C(=O)O)c2)c1`, in the experiment on Bacillus cereus, the Activity was 106%. Moreover, the growth at 10 µM is 104% in the experiment on MDA-MB-231 and 101% with HCT-116.
`COC(=O)c1ccc(NCc2ccccc2)cc1N1CCOCC1`: the Activity in the experiment with Bacillus cereus turned out to be 102%. Besides, the growth at 10 µM is 95.2% with MDA-MB-231 and 85.4% in the experiment with HCT-116.
Taken in the same sequence, the figures for `O=C(NO)c1cc(NCc2ccc(Cl)cc2)ccc1C1CCOCC1` were 92.5%, 72.2% and 69.9%.
Regarding `COC(=O)c1ccc(NCc2cccc(F)c2)cc1N1CCOCC1`, in the experiment with Bacillus cereus, the Activity stood at 78.9%. Moreover, the growth at 10 µM with MDA-MB-231 turned out to be 85.9%; in the experiment on HCT-116, 71%.
Taken in the same sequence, the figures for `COC(=O)c1ccc(NCc2ccc(OC)cc2)cc1N1CCOCC1` were 104%, 87.5% and 70.4%.
On the same counts, the results for `COC(=O)c1cc(NCc2ccc(F)cc2)ccc1C1CCOCC1` are 52%, 36% and 25.3%.
With `COC(=O)c1ccc(NCc2ccccc2OC)cc1N1CCOCC1`, the Activity in the experiment with Bacillus cereus was 104%. The growth at 10 µM with MDA-MB-231 is 73.6%; with HCT-116, 55.5%.
Turning to `COC(=O)c1cc(NCc2cccc(Br)c2)ccc1C1CCOCC1`, the Activity with Bacillus cereus worked out at 109%. Further, the values for the growth at 10 µM with MDA-MB-231 and with HCT-116 were 58.8% and 40.1%, respectively.
On the same counts, the results for `O=C(NO)c1ccc(NCc2cccc(Cl)c2)cc1N1CCOCC1` are 47.5%, 39.6% and 48.6%.
Regarding `O=C(NO)c1cc(NCc2ccc(Br)cc2)ccc1C1CCOCC1`, in the experiment on Bacillus cereus, the Activity was 71.4%. For the same compound, the growth at 10 µM with MDA-MB-231 came to 61.6%; in the experiment on HCT-116 it was 60.1%.
On the same counts, the results for `O=C(NO)c1ccc(NCc2ccc(F)cc2)cc1N1CCOCC1` are 49.2%, 81.6% and 91.4%.
For the compound `COC(=O)c1cc(N(C)Cc2ccccc2Cl)ccc1N1CCOCC1`, the growth at 10 µM with MDA-MB-231 was determined as 83.8%; in the experiment with HCT-116, 54.5%.
Take `O=C(O)c1ccc(NCc2ccc(Br)cc2)cc1N1CCOCC1`: the Activity with Bacillus cereus was 99.1%. Further, the growth at 10 µM is 99.7% in the experiment on MDA-MB-231 and 101% in the experiment on HCT-116.
Taken in the same sequence, the figures for `O=C(O)c1cc(NCc2ccc(F)cc2)ccc1C1CCOCC1` were 102%, 107% and 104%.
On the same counts, the results for `O=C(NO)c1cc(NCc2cccc(Br)c2)ccc1C1CCOCC1` are 75.2%, 77.6% and 78.8%.
